Assay results taken from EP0505841A2, “Analgesic composition containing beta-carotene” (MILES INC., priority 1991, dated 1992).
Entries after “also recorded” stand apart in the source; their conditions may differ.

How the values were obtained:
[1] = system: Phenylquinone (PQ) Writhing; assay: Phenylquinone (PQ) writhing; assay type: in vivo, mice; settings: for effect on the analgesia (pain relief effects) of aspirin: interaction term p. <.001; for writhing response, means: two-vehicle combination set at zero; for P.Q. WRITHING (INH. %) ± SEM: mice
Protocol: The test sample is administered orally (mg/kg) to a group of 8 mice one hour before injection of PQ (2 mg/kg intraperitonilly). Greater than 50 percent (>50) inhibition of the number of writhes per group of animals observed during 5 to 10 minutes after PQ, relative to a vehicle treated group, indicates possible analgesic activity. [Irwin, Samuel, Psychopharmacologia, 13:22-257, 1968.] A test was conducted using alpha-tocopherol and aspirin. […] All dosing was done orally (PO). […] Again the writhing response was set at zero for the two-vehicle combination.

[2] = system: paw edema; assay: Carrageenan paw edema, anti-inflammatory test; settings: rats, p.o., 3 hrs after carrageenan
[3] = system: Prostaglandin and hydroxyicosatetraenoic acid (HETE) production; settings: bovine seminal vesicles and kidney; cited from earlier work

Cc1c(C)c2c(c(C)c1O)CCC(C)(CCCC(C)CCCC(C)CCCC(C)C)O2 (stereo not drawn) [Alpha-tocopherol, alpha-tocopherol]
effect on the analgesia (pain relief effects) of aspirin ([1]; PO): antagonizes the pain relief effects of aspirin; also recorded: antagonism to the analgesia of aspirin
effect on the analgesia (pain relief effects) of aspirin ([1]; PO, listed as Vitamin E): significant antagonistic effect
writhing response, means ([1]; aspirin Veh., Vitamin E 100 mg.): 1
writhing response, means ([1]; aspirin Veh., Vitamin E 300 mg.): 2
P.Q. WRITHING (INH. %) ± SEM ([1]; PO, A₀ aspirin vehicle + E₁ alpha-tocopherol 300mg/kg): 3 ± 1%
P.Q. WRITHING (INH. %) ± SEM ([1]; PO, A₀ aspirin vehicle + E₂ alpha-tocopherol 100mg/kg): 1 ± 1%
P.Q. WRITHING (INH. %) ± SEM ([1]; PO, A₀ aspirin vehicle + E₃ alpha-tocopherol 30 mg/kg): 3 ± 1%
P.Q. WRITHING (INH. %) ± SEM ([1]; PO, A₀ aspirin vehicle + E₅ alpha-tocopherol 3 mg/kg): 3 ± 1%

CC(=O)Oc1ccccc1C(=O)O [Aspirin, aspirin]
Mean Paw Volumes ([2]; A1 aspirin 10 mg/kg + B0 ß-carotene vehicle): 79.1 ml. x 10^-2
Mean Paw Volumes ([2]; A2 aspirin 30 mg/kg + B0 ß-carotene vehicle): 73.9 ml. x 10^-2
Mean Paw Volumes ([2]; A3 aspirin 100 mg/kg + B0 ß-carotene vehicle): 58.9 ml. x 10^-2
Mean Paw Volumes ([2]; A4 aspirin 300 mg/kg + B0 ß-carotene vehicle): 38.8 ml. x 10^-2
ED20 ([1]; Mus musculus, PO, also used as dose level A₁, read-out: ED₂₀): 8.3 mg/kg
ED50 ([1]; Mus musculus, PO, also used as dose level A₂, read-out: ED₅₀): 25 mg/kg
ED80 ([1]; Mus musculus, PO, also used as dose level A₃, read-out: ED₈₀): 75 mg/kg
writhing response, means ([1]; aspirin ED20, Vitamin E Vehicle): 20
writhing response, means ([1]; aspirin ED50, Vitamin E Vehicle): 48
writhing response, means ([1]; aspirin ED80, Vitamin E Vehicle): 85
P.Q. WRITHING (INH. %) ± SEM ([1]; PO, A₁ aspirin 8.3 mg/kg + E₀ alpha-tocopherol vehicle): 20 ± 1%
P.Q. WRITHING (INH. %) ± SEM ([1]; PO, A₂ aspirin 25 mg/kg + E₀ alpha-tocopherol vehicle): 48 ± 2%
P.Q. WRITHING (INH. %) ± SEM ([1]; PO, A₃ aspirin 75 mg/kg + E₀ alpha-tocopherol vehicle): 85 ± 2%

CC1=C(/C=C/C(C)=C/C=C/C(C)=C/CO)C(C)(C)CCC1 [retinol]
Prostaglandin and hydroxyicosatetraenoic acid (HETE) production [3]: considerably inhibited

CC1=C(/C=C/C(C)=C/C=C/C(C)=C/C=C/C=C(C)/C=C/C=C(C)/C=C/C2=C(C)CCCC2(C)C)C(C)(C)CCC1 [β-Carotene, ß-carotene]
Mean Paw Volumes ([2]; A0 aspirin vehicle + B1 ß-carotene 10 mg/kg): 86.0(.24) ml. x 10^-2
Mean Paw Volumes ([2]; A0 aspirin vehicle + B2 ß-carotene 30 mg/kg): 86.5(.14) ml. x 10^-2
Mean Paw Volumes ([2]; A0 aspirin vehicle + B3 ß-carotene 100 mg/kg): 81.6(.16) ml. x 10^-2
Mean Paw Volumes ([2]; A0 aspirin vehicle + B4 ß-carotene 300 mg/kg): 81.9(.21) ml. x 10^-2
Prostaglandin and hydroxyicosatetraenoic acid (HETE) production [3]: considerably inhibited
